The source of these data is ChEMBL document CHEMBL5390310, “Rapid PROTAC Discovery Platform: Nanomole-Scale Array Synthesis and Direct Screening of Reaction Mixtures” (ACS Med Chem Lett, 2023).

T1 sequence (P40337 whole entry, looked up, other chains not shown): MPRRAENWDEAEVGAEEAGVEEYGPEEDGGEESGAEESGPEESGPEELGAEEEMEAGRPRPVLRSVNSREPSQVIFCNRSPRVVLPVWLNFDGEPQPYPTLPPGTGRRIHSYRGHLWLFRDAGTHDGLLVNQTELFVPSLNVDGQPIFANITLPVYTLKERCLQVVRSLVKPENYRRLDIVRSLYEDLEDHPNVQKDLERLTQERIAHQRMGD

The first assay concerns the target T1, von Hippel-Lindau disease tumor suppressor/Bromodomain-containing protein 4 (Homo sapiens, UniProt O60885+P40337). Description: Protac activity at VHL E3 ligase/BRD4 in HEK293 cells assessed as BRD4 degradation by HiBiT assay. It is filed as cell-based. A general note: With HiBiT, luminescence reflects the tagged protein that the partner subunit can reach.
With `Cc1sc2c(c1C)C(c1ccc(Cl)cc1)=N[C@@H](CC(=O)NCCCCCC(=O)NCCCC#Cc1cccc3c1CN(C1CCC(=O)NC1=O)C3=O)c1nnc(C)n1-2` (stereo in doubt) [listing 1 of 2 here], the pDC50 amounted to 7.3.

Turning to `Cc1ncsc1-c1ccc(CNC(=O)[C@@H]2C[C@@H](O)CN2C(=O)[C@@H](NC(=O)CCCCCCNC(=O)C[C@@H]2N=C(c3ccc(Cl)cc3)c3c(sc(C)c3C)-n3c(C)nnc32)C(C)(C)C)cc1` (stereo in doubt) [listing 1 of 2 here], the pDC50 is on record as 6.9.

For `Cc1sc2c(c1C)C(c1ccc(Cl)cc1)=N[C@@H](CC(=O)N1CCN(CC3CCN(c4ccc5c(c4)CN(C4CCC(=O)NC4=O)C5=O)CC3)CC1)c1nnc(C)n1-2` (stereo in doubt) [listing 1 of 2 here], the pDC50 stood at 9.1.

Consider `Cc1sc2c(c1C)C(c1ccc(Cl)cc1)=N[C@@H](CC(=O)N1CCN(CC#Cc3ccc4c(c3)CN(C3CCC(=O)NC3=O)C4=O)CC1)c1nnc(C)n1-2` (stereo in doubt), for which the pDC50 amounted to 8.

With `Cc1sc2c(c1C)C(c1ccc(Cl)cc1)=N[C@@H](CC(=O)N1CCC(CCN3CCC4(CC3)CCN(c3ccc5c(c3)CN(C3CCC(=O)NC3=O)C5=O)CC4)CC1)c1nnc(C)n1-2` (stereo in doubt) [listing 1 of 2 here], the pDC50 came out at 9.

For the compound `Cc1sc2c(c1C)C(c1ccc(Cl)cc1)=N[C@@H](CC(=O)N1CCC3(CCN(CC4CCN(c5ccc6c(c5)CN(C5CCC(=O)NC5=O)C6=O)CC4)CC3)CC1)c1nnc(C)n1-2` (stereo in doubt) [listing 1 of 2 here], the pDC50 amounted to 9.2.

Regarding `Cc1sc2c(c1C)C(c1ccc(Cl)cc1)=N[C@@H](CC(=O)N1CCN(CCC3CCN(c4ccc5c(c4)CN(C4CCC(=O)NC4=O)C5=O)CC3)CC1)c1nnc(C)n1-2` (stereo in doubt) [listing 1 of 2 here], the pDC50 is 8.8.

With `Cc1ncsc1-c1ccc(CNC(=O)[C@@H]2C[C@@H](O)CN2C(=O)[C@@H](NC(=O)CN2CCN(C(=O)CCCCCNC(=O)C[C@@H]3N=C(c4ccc(Cl)cc4)c4c(sc(C)c4C)-n4c(C)nnc43)CC2)C(C)(C)C)cc1` (stereo in doubt) [listing 1 of 2 here], the pDC50 is on record as 6.3.

For the compound `Cc1sc2c(c1C)C(c1ccc(Cl)cc1)=N[C@@H](CC(=O)N1CCN(CCCC3CCN(c4ccc5c(c4)CN(C4CCC(=O)NC4=O)C5=O)CC3)CC1)c1nnc(C)n1-2` (stereo in doubt) [listing 1 of 2 here], the pDC50 came to 8.8.

`Cc1sc2c(c1C)C(c1ccc(Cl)cc1)=N[C@@H](CC(=O)NCCCCCC(=O)N1CCN(CCCC3CCN(c4ccc5c(c4)CN(C4CCC(=O)NC4=O)C5=O)CC3)CC1)c1nnc(C)n1-2` (stereo in doubt) [listing 1 of 2 here]: the pDC50 is recorded as 9.3.

For the compound `Cc1sc2c(c1C)C(c1ccc(Cl)cc1)=N[C@@H](CC(=O)N1CCC3(CC1)CCN(c1ccc4c(c1)CN(C1CCC(=O)NC1=O)C4=O)CC3)c1nnc(C)n1-2` (stereo in doubt) [listing 1 of 2 here], the pDC50 was 8.8.

In the case of `Cc1sc2c(c1C)C(c1ccc(Cl)cc1)=N[C@@H](CC(=O)N1CCN(CC3CCN(c4ccc5c(c4)CN(C4CCC(=O)NC4=O)C5=O)CC3)CC1)c1nnc(C)n1-2` (stereo in doubt; 1P) [listing 1 of 2 here], the pDC50 is 9.7.

For `Cc1sc2c(c1C)C(c1ccc(Cl)cc1)=N[C@@H](CC(=O)N1CCC(CCN3CCC4(CC3)CCN(c3ccc5c(c3)CN(C3CCC(=O)NC3=O)C5=O)CC4)CC1)c1nnc(C)n1-2` (stereo in doubt; 2P) [listing 1 of 2 here], the pDC50 came out at 9.2.

With `Cc1sc2c(c1C)C(c1ccc(Cl)cc1)=N[C@@H](CC(=O)N1CCC3(CCN(CC4CCN(c5ccc6c(c5)CN(C5CCC(=O)NC5=O)C6=O)CC4)CC3)CC1)c1nnc(C)n1-2` (stereo in doubt; 3P) [listing 1 of 2 here], the pDC50 came to 9.1.

Turning to `Cc1sc2c(c1C)C(c1ccc(Cl)cc1)=N[C@@H](CC(=O)N1CCN(CC#Cc3ccc4c(c3)CN(C3CCC(=O)NC3=O)C4=O)CC1)c1nnc(C)n1-2` (stereo in doubt; 4P) [listing 1 of 2 here], the pDC50 amounted to 8.5.

For `Cc1sc2c(c1C)C(c1ccc(Cl)cc1)=N[C@@H](CC(=O)N1CCC3(CC1)CCN(c1ccc4c(c1)CN(C1CCC(=O)NC1=O)C4=O)CC3)c1nnc(C)n1-2` (stereo in doubt; 5P), the pDC50 is reported as 8.6.

For `Cc1sc2c(c1C)C(c1ccc(Cl)cc1)=N[C@@H](CC(=O)N1CCN(CCC3CCN(c4ccc5c(c4)CN(C4CCC(=O)NC4=O)C5=O)CC3)CC1)c1nnc(C)n1-2` (stereo in doubt; 6P) [listing 1 of 2 here], the pDC50 came to 9.4.

`Cc1ncsc1-c1ccc(CNC(=O)[C@@H]2C[C@@H](O)CN2C(=O)[C@@H](NC(=O)CCCCCCNC(=O)C[C@@H]2N=C(c3ccc(Cl)cc3)c3c(sc(C)c3C)-n3c(C)nnc32)C(C)(C)C)cc1` (stereo in doubt; 7P) [listing 1 of 2 here]: the pDC50 turned out to be 6.8.

For `Cc1ncsc1-c1ccc(CNC(=O)[C@@H]2C[C@@H](O)CN2C(=O)[C@@H](NC(=O)CN2CCN(C(=O)CCCCCNC(=O)C[C@@H]3N=C(c4ccc(Cl)cc4)c4c(sc(C)c4C)-n4c(C)nnc43)CC2)C(C)(C)C)cc1` (stereo in doubt; 8P) [listing 1 of 2 here], the pDC50 came out at 6.2.

Turning to `Cc1sc2c(c1C)C(c1ccc(Cl)cc1)=N[C@@H](CC(=O)NCCCCCC(=O)NCCCC#Cc1cccc3c1CN(C1CCC(=O)NC1=O)C3=O)c1nnc(C)n1-2` (stereo in doubt; 9P) [listing 1 of 2 here], the pDC50 is 7.4.

As for `Cc1sc2c(c1C)C(c1ccc(Cl)cc1)=N[C@@H](CC(=O)NCCCCCC(=O)N1CCN(CCCC3CCN(c4ccc5c(c4)CN(C4CCC(=O)NC4=O)C5=O)CC3)CC1)c1nnc(C)n1-2` (stereo in doubt; 10P) [listing 1 of 2 here], the pDC50 turned out to be 9.8.

For the compound `Cc1sc2c(c1C)C(c1ccc(Cl)cc1)=N[C@@H](CC(=O)N1CCN(CCCC3CCN(c4ccc5c(c4)CN(C4CCC(=O)NC4=O)C5=O)CC3)CC1)c1nnc(C)n1-2` (stereo in doubt; 11P), the pDC50 is given as 9.7.

For a further assay, the target named is T1, von Hippel-Lindau disease tumor suppressor/Bromodomain-containing protein 4. Description: Protac activity at VHL E3 ligase/BRD4 in HEK293 cells assessed as degradation maximum by HiBiT assay relative to control. Format: cell-based.
For orientation: Emax means the greatest response seen or fitted, relative to the assay's reference. As to `Cc1ncsc1-c1ccc(CNC(=O)[C@@H]2C[C@@H](O)CN2C(=O)[C@@H](NC(=O)CCCCCCNC(=O)C[C@@H]2N=C(c3ccc(Cl)cc3)c3c(sc(C)c3C)-n3c(C)nnc32)C(C)(C)C)cc1` (stereo in doubt) [listing 2 of 2 here], the Emax was 96%.

For `Cc1ncsc1-c1ccc(CNC(=O)[C@@H]2C[C@@H](O)CN2C(=O)[C@@H](NC(=O)CN2CCN(C(=O)CCCCCNC(=O)C[C@@H]3N=C(c4ccc(Cl)cc4)c4c(sc(C)c4C)-n4c(C)nnc43)CC2)C(C)(C)C)cc1` (stereo in doubt) [listing 2 of 2 here], the Emax worked out at 101%.

In the case of `Cc1sc2c(c1C)C(c1ccc(Cl)cc1)=N[C@@H](CC(=O)N1CCC(CCN3CCC4(CC3)CCN(c3ccc5c(c3)CN(C3CCC(=O)NC3=O)C5=O)CC4)CC1)c1nnc(C)n1-2` (stereo in doubt) [listing 2 of 2 here], the Emax came out at 100%.

In the case of `Cc1sc2c(c1C)C(c1ccc(Cl)cc1)=N[C@@H](CC(=O)N1CCC3(CC1)CCN(c1ccc4c(c1)CN(C1CCC(=O)NC1=O)C4=O)CC3)c1nnc(C)n1-2` (stereo in doubt) [listing 2 of 2 here], the Emax worked out at 100%.

`Cc1sc2c(c1C)C(c1ccc(Cl)cc1)=N[C@@H](CC(=O)N1CCC3(CCN(CC4CCN(c5ccc6c(c5)CN(C5CCC(=O)NC5=O)C6=O)CC4)CC3)CC1)c1nnc(C)n1-2` (stereo in doubt) [listing 2 of 2 here]: the Emax came to 99%.

As for `Cc1sc2c(c1C)C(c1ccc(Cl)cc1)=N[C@@H](CC(=O)N1CCN(CC3CCN(c4ccc5c(c4)CN(C4CCC(=O)NC4=O)C5=O)CC3)CC1)c1nnc(C)n1-2` (stereo in doubt) [listing 2 of 2 here], the Emax was found to be 100%.

As for `Cc1sc2c(c1C)C(c1ccc(Cl)cc1)=N[C@@H](CC(=O)N1CCN(CCC3CCN(c4ccc5c(c4)CN(C4CCC(=O)NC4=O)C5=O)CC3)CC1)c1nnc(C)n1-2` (stereo in doubt) [listing 2 of 2 here], the Emax worked out at 99%.

`Cc1sc2c(c1C)C(c1ccc(Cl)cc1)=N[C@@H](CC(=O)N1CCN(CCCC3CCN(c4ccc5c(c4)CN(C4CCC(=O)NC4=O)C5=O)CC3)CC1)c1nnc(C)n1-2` (stereo in doubt) [listing 2 of 2 here]: the Emax is 100%.

Consider `Cc1sc2c(c1C)C(c1ccc(Cl)cc1)=N[C@@H](CC(=O)NCCCCCC(=O)N1CCN(CCCC3CCN(c4ccc5c(c4)CN(C4CCC(=O)NC4=O)C5=O)CC3)CC1)c1nnc(C)n1-2` (stereo in doubt) [listing 2 of 2 here], for which the Emax came to 100%.

On to `Cc1sc2c(c1C)C(c1ccc(Cl)cc1)=N[C@@H](CC(=O)NCCCCCC(=O)NCCCC#Cc1cccc3c1CN(C1CCC(=O)NC1=O)C3=O)c1nnc(C)n1-2` (stereo in doubt) [listing 2 of 2 here], for which the Emax came to 93%.

Take `Cc1sc2c(c1C)C(c1ccc(Cl)cc1)=N[C@@H](CC(=O)N1CCN(CC3CCN(c4ccc5c(c4)CN(C4CCC(=O)NC4=O)C5=O)CC3)CC1)c1nnc(C)n1-2` (stereo in doubt; 1P) [listing 2 of 2 here]: the Emax worked out at 89%.

`Cc1sc2c(c1C)C(c1ccc(Cl)cc1)=N[C@@H](CC(=O)N1CCC(CCN3CCC4(CC3)CCN(c3ccc5c(c3)CN(C3CCC(=O)NC3=O)C5=O)CC4)CC1)c1nnc(C)n1-2` (stereo in doubt; 2P) [listing 2 of 2 here]: the Emax is 90%.

As to `Cc1sc2c(c1C)C(c1ccc(Cl)cc1)=N[C@@H](CC(=O)N1CCC3(CCN(CC4CCN(c5ccc6c(c5)CN(C5CCC(=O)NC5=O)C6=O)CC4)CC3)CC1)c1nnc(C)n1-2` (stereo in doubt; 3P) [listing 2 of 2 here], the Emax is 80%.

Turning to `Cc1sc2c(c1C)C(c1ccc(Cl)cc1)=N[C@@H](CC(=O)N1CCN(CC#Cc3ccc4c(c3)CN(C3CCC(=O)NC3=O)C4=O)CC1)c1nnc(C)n1-2` (stereo in doubt; 4P) [listing 2 of 2 here], the Emax amounted to 91%.

Take `Cc1sc2c(c1C)C(c1ccc(Cl)cc1)=N[C@@H](CC(=O)N1CCN(CCC3CCN(c4ccc5c(c4)CN(C4CCC(=O)NC4=O)C5=O)CC3)CC1)c1nnc(C)n1-2` (stereo in doubt; 6P) [listing 2 of 2 here]: the Emax was 79%.

For the compound `Cc1ncsc1-c1ccc(CNC(=O)[C@@H]2C[C@@H](O)CN2C(=O)[C@@H](NC(=O)CCCCCCNC(=O)C[C@@H]2N=C(c3ccc(Cl)cc3)c3c(sc(C)c3C)-n3c(C)nnc32)C(C)(C)C)cc1` (stereo in doubt; 7P) [listing 2 of 2 here], the Emax turned out to be 94%.

On to `Cc1ncsc1-c1ccc(CNC(=O)[C@@H]2C[C@@H](O)CN2C(=O)[C@@H](NC(=O)CN2CCN(C(=O)CCCCCNC(=O)C[C@@H]3N=C(c4ccc(Cl)cc4)c4c(sc(C)c4C)-n4c(C)nnc43)CC2)C(C)(C)C)cc1` (stereo in doubt; 8P) [listing 2 of 2 here], for which the Emax turned out to be 80%.

Take `Cc1sc2c(c1C)C(c1ccc(Cl)cc1)=N[C@@H](CC(=O)NCCCCCC(=O)NCCCC#Cc1cccc3c1CN(C1CCC(=O)NC1=O)C3=O)c1nnc(C)n1-2` (stereo in doubt; 9P) [listing 2 of 2 here]: the Emax worked out at 83%.

For the compound `Cc1sc2c(c1C)C(c1ccc(Cl)cc1)=N[C@@H](CC(=O)NCCCCCC(=O)N1CCN(CCCC3CCN(c4ccc5c(c4)CN(C4CCC(=O)NC4=O)C5=O)CC3)CC1)c1nnc(C)n1-2` (stereo in doubt; 10P) [listing 2 of 2 here], the Emax turned out to be 99%.
